Reference: the supplement of paper PMC8617591

Assays:
[1] = test system: Mycobacterium tuberculosis Erdman (autoluminescent); assay: total FIC50 (Loewe) at 50% inhibition, three-drug combination (log2); higher = more antagonistic
Protocol: (§1)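 DiaMOND equipotent three-drug combination dose responses (10 doses, 1.5- or 2-fold spacing, centred on IC90) against autoluminescent M. tuberculosis Erdman in 8 in vitro models. Read-out is OD600, or luminescence for the intracellular and dormancy models, normalised to untreated wells. Hill-fit Einf, AUC25 and GRinf are potency metrics; FIC50 and FIC90 are total Loewe fractional inhibitory concentrations as log2 (negative = synergy).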

[2] = test system: Mycobacterium tuberculosis Erdman (autoluminescent); assay: AUC25, normalised area under dose response up to IC25 (three-drug combination) (fraction (0-1)); higher = more potent at low dose
Protocol: as §1

[3] = test system: Mycobacterium tuberculosis Erdman (autoluminescent); assay: total FIC90 (Loewe) at 90% inhibition, three-drug combination (log2); higher = more antagonistic
Protocol: as §1

[4] = test system: Mycobacterium tuberculosis Erdman (autoluminescent); assay: GRinf, maximum normalised growth rate inhibition (three-drug combination) (unitless (-1 to 1)); higher = less effect (negative = killing)
Protocol: as §1

[5] = test system: Mycobacterium tuberculosis Erdman (autoluminescent); assay: Einf, fitted maximum growth inhibition of three-drug combination (fraction); higher = stronger maximal inhibition
Protocol: as §1

[6] = in vitro model: acidic pH 5.7, time point: constant (~7 days, model-specific)
[7] = in vitro model: acidic pH 5.7, time point: terminal (~4-5 doublings, model-specific)
[8] = in vitro model: butyrate, time point: constant (~7 days, model-specific)
[9] = in vitro model: butyrate, time point: terminal (~4-5 doublings, model-specific)
[10] = in vitro model: cholesterol 0.05 mM, time point: terminal (~4-5 doublings, model-specific)
[11] = in vitro model: cholesterol-high 0.2 mM, time point: constant (~7 days, model-specific)
[12] = in vitro model: cholesterol-high 0.2 mM, time point: terminal (~4-5 doublings, model-specific)
[13] = in vitro model: dormancy (butyrate + nitrate, low O2), time point: constant (~7 days, model-specific)
[14] = in vitro model: dormancy (butyrate + nitrate, low O2), time point: terminal (~4-5 doublings, model-specific)
[15] = in vitro model: standard 7H9 glycerol, time point: constant = terminal
[16] = in vitro model: valerate, time point: constant (~7 days, model-specific)
[17] = in vitro model: valerate, time point: terminal (~4-5 doublings, model-specific)
[18] = in vitro model: cholesterol 0.05 mM, time point: constant (~7 days, model-specific)
[19] = in vitro model: intracellular J774, time point: constant = terminal

`CC(C)/N=c1\cc2n(-c3ccc(Cl)cc3)c3ccccc3nc-2cc1Nc1ccc(Cl)cc1` [clofazimine] + CC[C@@H](CO)NCCN[C@@H](CC)CO [ethambutol] + O=[N+]([O-])c1cn2c(n1)OC[C@@H](OCc1ccc(OC(F)(F)F)cc1)C2 [pretomanid] was tested, and the “total FIC50” value [1, 6] was 0.449, the “total FIC50” value [1, 7] was 0.46 and the “total FIC50” value [1, 8] was 0.411. The “total FIC50” value [1, 9] was 0.442, the “total FIC50” value [1, 10] was 2.15 and the “total FIC50” value [1, 11] was 1.08. The “total FIC50” value [1, 12] was 0.97, the “total FIC50” value [1, 13] was -0.084 and the “total FIC50” value [1, 14] was -0.114. The “total FIC50” value [1, 15] was -0.284, the “total FIC50” value [1, 16] was 0.805 and the “total FIC50” value [1, 17] was 0.355. It also gave an AUC25 [2, 6] of 0.129, an AUC25 [2, 7] of 0.0966 and an AUC25 [2, 8] of 0.103. It also gave an AUC25 [2, 9] of 0.0799, an AUC25 [2, 18] of 0.136 and an AUC25 [2, 10] of 0.131. The AUC25 [2, 11] was 0.102, the AUC25 [2, 12] was 0.0873 and the AUC25 [2, 13] was 0.106. The AUC25 [2, 14] was 0.127, the AUC25 [2, 15] was 0.126 and the AUC25 [2, 16] was 0.14. For the same molecule, the AUC25 [2, 17] was 0.0932, the “total FIC90” value [3, 7] was 0.859 and the “total FIC90” value [3, 9] was 0.382. The “total FIC90” value [3, 12] was 1.51, the “total FIC90” value [3, 14] was 0.801 and the “total FIC90” value [3, 19] was -1.25. The “total FIC90” value [3, 17] was 0.973, the GRinf [4, 6] was -0.436 and the GRinf [4, 7] was -0.21. The GRinf [4, 8] was -0.142, the GRinf [4, 9] was -0.138 and the GRinf [4, 18] was -0.577. It also gave a GRinf [4, 10] of -0.0173, a GRinf [4, 11] of -0.371 and a GRinf [4, 12] of -0.857. The GRinf [4, 13] was 0.446, the GRinf [4, 14] was -0.258 and the GRinf [4, 19] was -0.321. For the same molecule, the GRinf [4, 15] was -0.273, the GRinf [4, 16] was -0.308 and the GRinf [4, 17] was 0.0599. The Einf [5, 6] was 0.803, the Einf [5, 7] was 0.954 and the Einf [5, 8] was 0.962. It also gave an Einf [5, 9] of 0.981, an Einf [5, 18] of 0.718 and an Einf [5, 10] of 0.84. It also gave an Einf [5, 11] of 0.928, an Einf [5, 12] of 0.994 and an Einf [5, 13] of 0.824. It also gave an Einf [5, 14] of 0.99, an Einf [5, 19] of 0.987 and an Einf [5, 15] of 0.956. For the same molecule, the Einf [5, 16] was 0.867 and the Einf [5, 17] was 0.92.

In the case of `CC[C@@H](CO)NCCN[C@@H](CC)CO` [ethambutol] + CC(=O)NC[C@H]1CN(c2ccc(N3CCOCC3)c(F)c2)C(=O)O1 [linezolid] + NC(=O)c1cnccn1 [pyrazinamide], the “total FIC50” value [1, 6] is reported as 0.0711, the “total FIC50” value [1, 7] is reported as 1.01 and the “total FIC50” value [1, 8] is reported as 0.217. The “total FIC50” value [1, 9] was 0.189, the “total FIC50” value [1, 10] was -1.33 and the “total FIC50” value [1, 11] was 0.563. For the same molecule, the “total FIC50” value [1, 12] was 0.303, the “total FIC50” value [1, 13] was 0.819 and the “total FIC50” value [1, 14] was 0.154. For the same molecule, the “total FIC50” value [1, 15] was 1.2, the “total FIC50” value [1, 16] was 0.255 and the “total FIC50” value [1, 17] was 0.697. It also gave an AUC25 [2, 6] of 0.087, an AUC25 [2, 7] of 0.0645 and an AUC25 [2, 8] of 0.114. It also gave an AUC25 [2, 9] of 0.0865, an AUC25 [2, 18] of 0.16 and an AUC25 [2, 10] of 0.168. For the same molecule, the AUC25 [2, 11] was 0.101, the AUC25 [2, 12] was 0.11 and the AUC25 [2, 13] was 0.107. It also gave an AUC25 [2, 14] of 0.102, an AUC25 [2, 15] of 0.071 and an AUC25 [2, 16] of 0.0934. The AUC25 [2, 17] was 0.0462, the “total FIC90” value [3, 7] was -1.27 and the “total FIC90” value [3, 9] was 0.638. The “total FIC90” value [3, 12] was 0.985, the “total FIC90” value [3, 14] was 0.627 and the “total FIC90” value [3, 19] was 0.433. It also gave a GRinf [4, 6] of -0.314, a GRinf [4, 7] of -0.245 and a GRinf [4, 8] of 0.0745. The GRinf [4, 9] was 0.0716, the GRinf [4, 18] was -0.0274 and the GRinf [4, 10] was -0.696. It also gave a GRinf [4, 11] of -0.667, a GRinf [4, 12] of -0.959 and a GRinf [4, 13] of 0.388. For the same molecule, the GRinf [4, 14] was 0.0543, the GRinf [4, 19] was -0.526 and the GRinf [4, 15] was 0.221. The GRinf [4, 16] was 0.000637, the GRinf [4, 17] was 0.102 and the Einf [5, 6] was 0.835. It also gave an Einf [5, 7] of 0.963, an Einf [5, 8] of 0.891 and an Einf [5, 9] of 0.932. For the same molecule, the Einf [5, 18] was 0.785, the Einf [5, 10] was 0.977 and the Einf [5, 11] was 0.944. The Einf [5, 12] was 1, the Einf [5, 13] was 0.75 and the Einf [5, 14] was 0.964. For the same molecule, the Einf [5, 19] was 0.966, the Einf [5, 15] was 0.86 and the Einf [5, 16] was 0.864. The Einf [5, 17] was 0.909.

In the case of `CC(C)/N=c1\cc2n(-c3ccc(Cl)cc3)c3ccccc3nc-2cc1Nc1ccc(Cl)cc1` [clofazimine] + NNC(=O)c1ccncc1 [isoniazid] + O=[N+]([O-])c1cn2c(n1)OC[C@@H](OCc1ccc(OC(F)(F)F)cc1)C2 [pretomanid], the “total FIC50” value [1, 6] is reported as -0.103, the “total FIC50” value [1, 7] is reported as 0.278 and the “total FIC50” value [1, 8] is reported as 0.629. The “total FIC50” value [1, 9] was 0.581, the “total FIC50” value [1, 18] was 0.824 and the “total FIC50” value [1, 10] was 7.01. For the same molecule, the “total FIC50” value [1, 11] was 0.301, the “total FIC50” value [1, 12] was 0.306 and the “total FIC50” value [1, 13] was -0.236. The “total FIC50” value [1, 14] was -0.374, the “total FIC50” value [1, 15] was 0.139 and the “total FIC50” value [1, 16] was 0.901. For the same molecule, the “total FIC50” value [1, 17] was 0.511, the AUC25 [2, 6] was 0.0904 and the AUC25 [2, 7] was 0.0916. The AUC25 [2, 8] was 0.106, the AUC25 [2, 9] was 0.0874 and the AUC25 [2, 18] was 0.119. The AUC25 [2, 10] was 0.0944, the AUC25 [2, 11] was 0.102 and the AUC25 [2, 12] was 0.0894. It also gave an AUC25 [2, 13] of 0.0958, an AUC25 [2, 14] of 0.0744 and an AUC25 [2, 15] of 0.116. The AUC25 [2, 16] was 0.15, the AUC25 [2, 17] was 0.0945 and the “total FIC90” value [3, 7] was 0.567. The “total FIC90” value [3, 8] was 1.4, the “total FIC90” value [3, 9] was 1.02 and the “total FIC90” value [3, 10] was 0.912. For the same molecule, the “total FIC90” value [3, 12] was 0.374, the “total FIC90” value [3, 13] was -0.894 and the “total FIC90” value [3, 14] was -0.0746. For the same molecule, the “total FIC90” value [3, 19] was 0.28, the “total FIC90” value [3, 15] was 0.594 and the “total FIC90” value [3, 16] was 2.23. The “total FIC90” value [3, 17] was 2.01, the GRinf [4, 6] was -0.0866 and the GRinf [4, 7] was -0.274. The GRinf [4, 8] was -0.205, the GRinf [4, 9] was -0.14 and the GRinf [4, 18] was -0.0879. It also gave a GRinf [4, 10] of -0.156, a GRinf [4, 11] of -0.31 and a GRinf [4, 12] of -0.709. The GRinf [4, 13] was 0.217, the GRinf [4, 14] was -0.177 and the GRinf [4, 19] was -0.35. For the same molecule, the GRinf [4, 15] was -0.229, the GRinf [4, 16] was -0.199 and the GRinf [4, 17] was -0.0153. For the same molecule, the Einf [5, 6] was 0.772, the Einf [5, 7] was 0.963 and the Einf [5, 8] was 0.965. The Einf [5, 9] was 0.989, the Einf [5, 18] was 0.713 and the Einf [5, 10] was 0.912. For the same molecule, the Einf [5, 11] was 0.971, the Einf [5, 12] was 1 and the Einf [5, 13] was 0.93. The Einf [5, 14] was 0.987, the Einf [5, 19] was 0.976 and the Einf [5, 15] was 0.949. For the same molecule, the Einf [5, 16] was 0.918 and the Einf [5, 17] was 0.942.
